From paper PMC6219549, “Emergence of a cholecystokinin/sulfakinin signalling system in Lophotrochozoa” (Scientific Reports, 2018)
“Also recorded” adds a separate entry of the source. Where two headings read alike, the source gives them in different places. Where a SMILES comes first, the peptide text is derived from it. Where no end group is shown, it is not given here. [ ]: non-standard residue; d: D form. sY = N[C@@H](Cc1ccc(OS(=O)(=O)O)cc1)C(=O)O; pGlu = O=C1CC[C@@H](C(=O)O)N1

Experiments:
oyster hindgut = experiment: Myotropic bioassay on oyster hindgut; parameters: species or system Crassostrea gigas; conditions: for Duration, Relaxation (R) / Duration, Contraction (C) / Duration, Period (P) / Amplitude (A): mean ± SEM of four experiments, SEM; for Minimal threshold concentration inducing hindgut contraction: isolated oyster hindgut, perfused muscle chamber
Method: The myotropic bioassay was performed using oyster's hindgut according to the protocol described earlier for the cuttlefish oviduct. The muscle chamber was perfused at a flow rate of 0.67 mL.min^-1. Increasing concentrations of synthetic peptides (Cragi-CCK1, [[…], [[…], [[…]) were injected in the perfusing flow using a three-way valve to avoid mechanical stress. The flow of the samples into the muscle chamber was traced by adding phenol red.

Cragi-CCKR2 = target: T1, Cragi-CCKR2 (Magallana gigas, UniProt A0A345BJM9); experiment: Calcium fluorescence (mobilization) assay, Cragi-CCKR2 in HEK293T cells; format: cell-based, Crassostrea gigas; conditions: for EC50: HEK293T transiently transfected with Cragi-CCKR2, Fluo-4 calcium response, 37 °C, read-out: EC50 for receptor activation, Cragi-CCKR2
T1 sequence (A0A345BJM9 1-406): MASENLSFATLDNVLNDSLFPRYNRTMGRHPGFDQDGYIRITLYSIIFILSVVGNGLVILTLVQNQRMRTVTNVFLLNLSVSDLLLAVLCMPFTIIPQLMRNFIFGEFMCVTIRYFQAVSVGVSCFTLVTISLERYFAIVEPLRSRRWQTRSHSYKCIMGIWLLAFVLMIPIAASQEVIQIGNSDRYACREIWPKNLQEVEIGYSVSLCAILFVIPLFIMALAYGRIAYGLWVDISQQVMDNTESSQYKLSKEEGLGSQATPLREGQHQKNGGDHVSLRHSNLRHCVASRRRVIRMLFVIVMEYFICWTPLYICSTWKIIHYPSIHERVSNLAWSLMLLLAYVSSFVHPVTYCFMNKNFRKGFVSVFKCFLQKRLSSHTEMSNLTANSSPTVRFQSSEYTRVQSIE
From the text: (§1) The CDS of the Cragi-CCKR genes were amplified by PCR (Pfu DNA polymerase, Promega) using gene-specific sense primers harbouring a Kozak consensus sequence and antisense primers (Supplementary Table 3). Ten nanogram of plasmid DNA (Pal 17.3 vector, Evrogen) from a C. gigas “all developmental stages and adult central nervous system” directional and normalized cDNA library[62] was used as template. The resulting PCR products were directionally cloned into the pcDNA3.1 expression vector (Invitrogen). The correct insertion of the PCR products was confirmed by sequencing. Human Embryonic Kidney (HEK293T) cells were transiently transfected with the Cragi-CCKR/pcDNA3.1 constructs using Fugene HD (Promega) according to the manufacturer’s instructions. As a first step, co-transfection was done with a pcDNA3.1 expression construct for the human Gα16 subunit, a promiscuous G protein that can direct intracellular signalling of GPCRs to the release of calcium via the phospholipase Cβ pathway, regardless of the endogenous G protein coupling of the receptor[63]. To assess receptor activity independent of Gα16, calcium responses were measured in cells expressing only the Cragi-CCKRs. Cells for negative control experiments were transfected with empty pcDNA3.1 and Gα16/pcDNA3.1 constructs.
(§2) Activation of the Cragi-CCKRs by candidate peptide ligands was monitored using a fluorescence-based calcium mobilization assay. Briefly, transfected HEK293T cells were loaded with Fluo-4 Direct (Invitrogen) plus probenecid (qsp 2.5 mM final in the cell) (Molecular Probes) for 1 hour (45 min at 37 °C and 15 min at room temperature). Excitation of the fluorophore was done at 488 nm. The calcium response was measured for 2 min at 525 nm using a FLEXstation 3 (Molecular Devices) at 37 °C. Data were analysed using SoftMax Pro (Molecular Devices). Candidate ligands were first tested at a final concentration of 10^−5 M. Concentration-response measurements of activating ligands were conducted in quadruplicate and for at least three independent experiments. Half maximal effective concentrations (EC50 values) were calculated from concentration-response curves that were constructed using nonlinear regression analysis with a sigmoidal dose-response equation using Prism 5.0 (GraphPad software, USA).

Cragi-CCKR1 = target: T2, Cragi-CCKR1 (Magallana gigas, UniProt A0A345BJM8); experiment: Calcium fluorescence (mobilization) assay, Cragi-CCKR1 in HEK293T cells; format: cell-based, Crassostrea gigas; conditions: for EC50: HEK293T transiently transfected with Cragi-CCKR1, Fluo-4 calcium response, 37 °C, read-out: EC50 for receptor activation, Cragi-CCKR1
T2 sequence (A0A345BJM8 1-408): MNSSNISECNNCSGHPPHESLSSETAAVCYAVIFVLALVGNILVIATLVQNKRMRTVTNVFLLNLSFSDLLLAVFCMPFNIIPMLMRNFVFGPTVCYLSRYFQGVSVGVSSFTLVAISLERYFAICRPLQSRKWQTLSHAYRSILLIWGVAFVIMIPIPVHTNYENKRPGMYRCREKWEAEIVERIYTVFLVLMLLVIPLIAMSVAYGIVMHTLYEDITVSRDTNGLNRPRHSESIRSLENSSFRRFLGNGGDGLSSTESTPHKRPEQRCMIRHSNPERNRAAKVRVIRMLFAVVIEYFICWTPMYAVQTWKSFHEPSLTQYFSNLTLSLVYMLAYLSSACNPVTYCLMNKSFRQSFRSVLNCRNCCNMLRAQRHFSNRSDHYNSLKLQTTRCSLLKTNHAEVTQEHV
From the text: as §1, §2

[1] = concentration-response in quadruplicate, at least three independent experiments
[2] = folds more potent than [Y^8S] Cragi-CCK1, calcium assay
[3] = times more potent than non-sulphated Cragi-CCK1, calcium assay
[4] = high concentrations, HEK293T, Fig. 4

CC(C)C[C@H](NC(=O)CNC(=O)[C@H](Cc1ccc(O)cc1)NC(=O)[C@H](CC(=O)O)NC(=O)[C@H](Cc1ccc(O)cc1)NC(=O)[C@H](CC(=O)O)NC(=O)[C@H](Cc1c[nH]c2ccccc12)NC(=O)[C@H](C)NC(=O)CNC(=O)[C@@H]1CCC(=O)N1)C(=O)NCC(=O)NCC(=O)NCC(=O)N[C@@H](CCCNC(=N)N)C(=O)N[C@@H](Cc1ccccc1)C(N)=O [Cragi-CCK1] ([pGlu]GAWDYDYGLGGGRF-NH2)
Duration, Relaxation (R) (oyster hindgut; Peptide 10^−7M, no peptide 10,48 ± 0,78): 16,03 ± 1,13 min | Duration, Contraction (C) (oyster hindgut; Peptide 10^−7M, no peptide 20,18 ± 0,33): 35,23 ± 1,32 min | Duration, Period (P) (oyster hindgut; Peptide 10^−7M, no peptide 30,67 ± 0,67): 51,27 ± 0,15 min | Amplitude (A) (oyster hindgut; Peptide 10^−7M, no peptide 0,161 ± 0,038): 0,203 ± 0,038 g | Minimal threshold concentration inducing hindgut contraction (oyster hindgut): 10^−7 M | EC50 (Cragi-CCKR2; [1]): 462 ± 67 nM | EC50 (Cragi-CCKR1; [1]): 195 ± 20 nM

N=C(N)NCCC[C@H](NC(=O)CNC(=O)CNC(=O)CNC(=O)[C@H](Cc1ccc(OS(=O)(=O)O)cc1)NC(=O)[C@H](CC(=O)O)NC(=O)[C@@H](N)Cc1ccccc1)C(=O)N[C@@H](Cc1c[nH]c2ccccc12)C(N)=O [[Y^3S] Cragi-CCK2] (H-FD[sY]GGGRW-NH2)
EC50 (Cragi-CCKR2; values given in M): > 100000 nM

CC(C)C[C@H](NC(=O)CNC(=O)[C@H](Cc1ccc(OS(=O)(=O)O)cc1)NC(=O)[C@H](CC(=O)O)NC(=O)[C@H](Cc1ccc(OS(=O)(=O)O)cc1)NC(=O)[C@H](CC(=O)O)NC(=O)[C@H](Cc1c[nH]c2ccccc12)NC(=O)[C@H](C)NC(=O)CNC(=O)[C@@H]1CCC(=O)N1)C(=O)NCC(=O)NCC(=O)NCC(=O)N[C@@H](CCCNC(=N)N)C(=O)N[C@@H](Cc1ccccc1)C(N)=O [[Y^6S-Y^8S] Cragi-CCK1] ([pGlu]GAWD[sY]D[sY]GLGGGRF-NH2)
Duration, Relaxation (R) (oyster hindgut; Peptide 10^−9M, no peptide 11,80 ± 1,63): 23,82 ± 1,35 min | Duration, Contraction (C) (oyster hindgut; Peptide 10^−9M, no peptide 18,76 ± 1,07): 38,57 ± 3,53 min | Duration, Period (P) (oyster hindgut; Peptide 10^−9M, no peptide 30,57 ± 2,22): 62,39 ± 2,50 min | Amplitude (A) (oyster hindgut; Peptide 10^−9M, no peptide 0,103 ± 0,006): 0,153 ± 0,016 g | Minimal threshold concentration inducing hindgut contraction (oyster hindgut): 10^−9 M | EC50 (Cragi-CCKR2; [1]): 1.98 ± 0.25 nM | Potency relative to mono-sulphated [Y^8S] Cragi-CCK1, Cragi-CCKR2 (Cragi-CCKR2; [2]): 5 folds | EC50 (Cragi-CCKR1; [1]): 1.1 ± 0.25 nM | Potency relative to mono-sulphated [Y^8S] Cragi-CCK1, Cragi-CCKR1 (Cragi-CCKR1; [2]): 2 folds

CC(C)C[C@H](NC(=O)CNC(=O)[C@H](Cc1ccc(O)cc1)NC(=O)[C@H](CC(=O)O)NC(=O)[C@H](Cc1ccc(OS(=O)(=O)O)cc1)NC(=O)[C@H](CC(=O)O)NC(=O)[C@H](Cc1c[nH]c2ccccc12)NC(=O)[C@H](C)NC(=O)CNC(=O)[C@@H]1CCC(=O)N1)C(=O)NCC(=O)NCC(=O)NCC(=O)N[C@@H](CCCNC(=N)N)C(=O)N[C@@H](Cc1ccccc1)C(N)=O [[Y^6S] Cragi-CCK1] ([pGlu]GAWD[sY]DYGLGGGRF-NH2)
Duration, Relaxation (R) (oyster hindgut; Peptide 10^−5M, no peptide 11,35 ± 0,85): 11,23 ± 0,60 min | Duration, Contraction (C) (oyster hindgut; Peptide 10^−5M, no peptide 20,18 ± 0,98): 21 ± 1,42 min | Duration, Period (P) (oyster hindgut; Peptide 10^−5M, no peptide 31,53 ± 1,45): 32,23 ± 1,53 min | Amplitude (A) (oyster hindgut; Peptide 10^−5M, no peptide 0,129 ± 0,019): 0,104 ± 0,021 g | Hindgut response (in words) (oyster hindgut; concentration up to 10^−5M): No response | Activation of Cragi-CCKR2 (in words) (Cragi-CCKR2; doses as high as 10^−5M, calcium assay in HEK293T): inactive; also recorded: No activation | EC50 (Cragi-CCKR1; [1]): 16.4 ± 0.1 nM

CC(C)C[C@H](NC(=O)CNC(=O)[C@H](Cc1ccc(OS(=O)(=O)O)cc1)NC(=O)[C@H](CC(=O)O)NC(=O)[C@H](Cc1ccc(O)cc1)NC(=O)[C@H](CC(=O)O)NC(=O)[C@H](Cc1c[nH]c2ccccc12)NC(=O)[C@H](C)NC(=O)CNC(=O)[C@@H]1CCC(=O)N1)C(=O)NCC(=O)NCC(=O)NCC(=O)N[C@@H](CCCNC(=N)N)C(=O)N[C@@H](Cc1ccccc1)C(N)=O [[Y^8S] Cragi-CCK1] ([pGlu]GAWDYD[sY]GLGGGRF-NH2)
Duration, Relaxation (R) (oyster hindgut; Peptide 10^−10M, no peptide 11,08 ± 2,27): 17,62 ± 5,27 min | Duration, Contraction (C) (oyster hindgut; Peptide 10^−10M, no peptide 18,58 ± 1,03): 37,13 ± 3,28 min | Duration, Period (P) (oyster hindgut; Peptide 10^−10M, no peptide 29,66 ± 2,22): 54,75 ± 1,97 min | Amplitude (A) (oyster hindgut; Peptide 10^−10M, no peptide 0,121 ± 0,025): 0,173 ± 0,023 g | Minimal threshold concentration inducing hindgut contraction (oyster hindgut): 10^−10 M | EC50 (Cragi-CCKR2; [1]): 10 ± 1.9 nM | Potency relative to non-sulphated counterpart (Cragi-CCK1), Cragi-CCKR2 (Cragi-CCKR2; [3]): 50 times | EC50 (Cragi-CCKR1; [1]): 2.29 ± 1.55 nM | Potency relative to non-sulphated counterpart (Cragi-CCK1), Cragi-CCKR1 (Cragi-CCKR1; [3]): 90 times

FDYGGGRW-NH2 [Cragi-CCK2]
EC50 (Cragi-CCKR2; values given in M): > 100000 nM | EC50 (Cragi-CCKR1; values given in M): > 100000 nM

FMRF-amide [reference compound]
Hindgut effect (in words) (oyster hindgut; concentration of 10^−7M): No effect

GALRF-amide [oyster GALRF-amide unrelated neuropeptide used as negative control, reference compound]
Calcium response of Cragi-CCKR2 to negative control peptide (Cragi-CCKR2; [4]): No response | Calcium response of Cragi-CCKR1 to negative control peptide (Cragi-CCKR1; [4]): No response
